The IC50 is the concentration that gives 50% inhibition.

This experiment concerns QGY-7701 cell line. Put plainly: CCK-8 cell proliferation assay, QGY-7701. The format is cell-based, human. The conditions noted are these: read-out: IC50 QGY-7701; CCK8, 72 h of treatment. (Tetrazolium assays rely on reduction of a dye to a coloured formazan, in cell work by metabolically active cells.)

With `N.N.[Cl][Pt][Cl]` [Cisplatin], the IC50 was 8.75 ± 0.26 µM.

These data come from paper PMC9083030 (RSC Advances, 2018).
